Test results: article PMC12635197, “Discovery of first-in-class inhibitors of the TRF1:TIN2 protein:protein interaction by fragment screening” (Scientific Reports, 2025)
“Also recorded” adds a separate entry of the source.

Target: T1, shelterin complex (Homo sapiens, UniProt P54274)
T1 construct: evicted full-length TRF1 from the shelterin complex; made in house; host or cells: Spodoptera frugiperda (Sf9) insect cells, MultiBac baculovirus
T1 sequence (P54274 1-439): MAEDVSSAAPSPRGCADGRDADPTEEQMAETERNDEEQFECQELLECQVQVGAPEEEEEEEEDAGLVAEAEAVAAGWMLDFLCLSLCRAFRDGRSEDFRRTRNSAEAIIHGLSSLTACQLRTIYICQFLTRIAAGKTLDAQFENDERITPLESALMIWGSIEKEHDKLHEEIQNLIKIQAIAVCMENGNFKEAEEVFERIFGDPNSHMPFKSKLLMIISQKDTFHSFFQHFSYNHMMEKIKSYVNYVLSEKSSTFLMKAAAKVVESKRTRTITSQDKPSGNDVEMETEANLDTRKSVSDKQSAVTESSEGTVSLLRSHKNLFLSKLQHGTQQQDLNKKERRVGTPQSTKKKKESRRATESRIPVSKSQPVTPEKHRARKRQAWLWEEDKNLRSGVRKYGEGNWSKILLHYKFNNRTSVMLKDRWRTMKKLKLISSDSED
Test: Mass photometry assay of TRF1 eviction from shelterin
Assay type: biochemical
Source text: We developed a mass-photometry based assay to evaluate the ability of compound 40 to disrupt the TRF1TRFH:TIN2TBM interaction and subsequently evict TRF1 from the full shelterin complex. We expressed recombinant shelterin in insect cells (see Materials and Methods) and purified it via affinity and size exclusion chromatography (SEC). Given the compositional heterogeneity of shelterin, also observed by Zinder et al. 2022[42], we enriched a complex of approximately 700 kDa by serial SEC. The resulting complex was incubated with increasing concentrations of compound 40, and the resulting mass distribution was analysed by mass photometry. Due to disassembly of the complex upon dilution to nanomolar concentrations required for mass photometry, we stabilised it by limited crosslinking using glutaraldehyde prior to dilution to assess potential TRF1 dissociation (Supplementary Fig. 6). With increasing concentrations of compound 40, we observed an increase in a peak around 100 kDa, corresponding in size to the full-length TRF1 dimer (Fig. 6a; Supplementary Fig. 7a, b), consistent with eviction of TRF1 from shelterin. […] Additionally, the mass photometry peak of shelterin shifted and reduced in size by approximately 100 kDa upon the addition of > 250 µM of compound 40, indicating the removal of TRF1 from the complex (Fig. 6a). To confirm whether the evicted entity corresponds to TRF1, we analysed the full shelterin complex by SDS-PAGE, upon co-incubation with increasing amounts of compound 40 or control compound 60 and subsequent mild crosslinking, analogous to the mass photometry experiment. […] To confirm its identity, we performed Western blotting, probing for TRF1, TRF2 and TIN2. This analysis confirmed that the released protein is TRF1 (Fig. 6c, f).
Mass Photometry (MP) experiments were performed using a Refeyn OneMP instrument. […] Data were processed and analysed using Refeyn DiscoverMP software (v2024 R2). Gaussian fits for the mass distribution histograms, mass measurements and percentage abundances (of peak counts to total counts) were determined for each peak observed.

Which “concentration at which TRF1 eviction reaches a plateau” value (1.25 µM shelterin, 100-300 µM compound, 1 h, glutaraldehyde crosslinking, n = 1) does the source give for `COc1cc(COc2ccc(S(=O)(=O)[O-])c3ccccc23)cc(OC)c1.[Na+]` [Compound 40] here?
The value was 250 µM.

What about the “eviction of TRF1 from shelterin (100-kDa TRF1 peak)” value (compound 40 at 100-300 µM, compound 60 at 300 µM) of the same molecule?
Its value is “expels TRF1 from purified shelterin; also recorded: concentration-dependent increase in eviction of TRF1”.

What about the “reduction in size of shelterin mass photometry peak” value (upon addition of > 250 µM compound) of the same molecule?
The value was “around 100 kDa”.
